US9623078B2, “Method for treating cardiac infarction using HMGB1 fragment” (GENOMIX CO., LTD, priority 2012, dated 2017)

Columns and labels:
[1] = system: acute stage myocardial infarction mouse model; test: Cardiac function by echocardiography in myocardial infarction model; type: in vivo
Protocol: (§1) Bone marrow cells were collected from the thigh bone/lower leg bone of three-week-old mice (C57BL6-CAG-GFP transgenic mice), and the bone marrow cell suspension was administered ([…]) to the tail vein of six-week-old mice (C57BL6) after irradiation (10GY) to produce bone marrow chimeric mice. Sixty days after bone marrow transplantation, left fourth interspace thoracotomy was performed under general anesthesia in the supine position, and the proximal left anterior descending coronary artery was ligated to produce an extensive myocardial infarction model (left anterior descending coronary artery/circumflex occlusion model). In making the HMGB1 protein low molecular, a fragment peptide (1-44) of the HMGB1 protein was developed in consideration of retaining the activity of recruiting bone marrow mesenchymal stem cells. At 6, 24, 48, 72, and 96 hours after infarction creation, the HMGB1 protein fragment peptide (1-44) (5 μg/300 μl), or 300 μl of PBS (negative control group) was administered five times to the tail vain. Mice were euthanized by administration of excess ketamine and xylazine, and their hearts were collected. After the tissues were embedded in OCT compound, cryosections of 5 μm thickness were prepared. […] Regarding the number of bone marrow-derived mesenchymal stem cells accumulated in the tissue, the number of cells positive for both GFP and PDGFRα present in all areas of randomly-selected 5 sections were determined and the mean value was calculated. […] Real-time PCR was performed with the Gene Amp(R) PCR System 9700 (Life Technologies Japan) using the above-mentioned cDNA as a template, and the levels of TNFα and IL-1β mRNA were determined as a ratio to the GAPDH mRNA level. Improvement in the cardiac function was evaluated by measuring the left ventricular end-diastolic diameter (LVDd: Dd), left ventricular end-systolic diameter (LVDs: Ds), and left ventricular ejection fraction (LVEF: EF) using the Vivid 7 Echocardiography System and 12-MHZ Transducer (General Electric).

[2] = system: PDGFRα-positive bone marrow mesenchymal stem cells; test: Recruitment of PDGFRα-positive bone marrow-derived mesenchymal stem cells to myocardium in myocardial infarction model (GFP/PDGFRα immunofluorescence); type: in vivo, mouse; details: N=4, P<0.05
Protocol: as §1, with “cells.” for “cells. At 6, 24, 48, 72, and 96 hours after infarction creation, the HMGB1 protein fragment peptide (1-44) (5 μg/300 μl), or 300 μl of PBS (negative control group) was administered five times to the tail vain. Mice were euthanized by administration of excess ketamine and xylazine, and their hearts were collected. After the tissues were embedded in OCT compound, cryosections of 5 μm thickness were prepared.”, “Improvement in the cardiac function was evaluated by measuring the left ventricular end-diastolic diameter (LVDd: Dd), left ventricular end-systolic diameter (LVDs: Ds), and left ventricular ejection fraction (LVEF: EF) using the Vivid 7 Echocardiography System and 12-MHZ Transducer (General Electric).” left out

TNFα mRNA = TNFα mRNA level in myocardial tissue of myocardial infarction model (real-time PCR); type: in vivo, mouse; details: ratio to GAPDH mRNA level; N=4; negative control 11±3; P<0.05; day not stated in text (FIG. 1C: 7 and 56 days)
Protocol: as §1, with “cells.” for “cells. At 6, 24, 48, 72, and 96 hours after infarction creation, the HMGB1 protein fragment peptide (1-44) (5 μg/300 μl), or 300 μl of PBS (negative control group) was administered five times to the tail vain. Mice were euthanized by administration of excess ketamine and xylazine, and their hearts were collected. After the tissues were embedded in OCT compound, cryosections of 5 μm thickness were prepared.”, “Improvement in the cardiac function was evaluated by measuring the left ventricular end-diastolic diameter (LVDd: Dd), left ventricular end-systolic diameter (LVDs: Ds), and left ventricular ejection fraction (LVEF: EF) using the Vivid 7 Echocardiography System and 12-MHZ Transducer (General Electric).” left out

IL-1β mRNA = IL-1β mRNA level in myocardial tissue of myocardial infarction model (real-time PCR); type: in vivo, mouse; details: ratio to GAPDH mRNA level; N=4; negative control 6±1; P<0.05; day not stated in text (FIG. 1D: 7 and 56 days)
Protocol: as §1, with “cells.” for “cells. At 6, 24, 48, 72, and 96 hours after infarction creation, the HMGB1 protein fragment peptide (1-44) (5 μg/300 μl), or 300 μl of PBS (negative control group) was administered five times to the tail vain. Mice were euthanized by administration of excess ketamine and xylazine, and their hearts were collected. After the tissues were embedded in OCT compound, cryosections of 5 μm thickness were prepared.”, “Improvement in the cardiac function was evaluated by measuring the left ventricular end-diastolic diameter (LVDd: Dd), left ventricular end-systolic diameter (LVDs: Ds), and left ventricular ejection fraction (LVEF: EF) using the Vivid 7 Echocardiography System and 12-MHZ Transducer (General Electric).” left out

HMGB1 protein fragment peptide (1-44): peptide consisting of amino acids at positions 1 to 44 of an HMGB1 protein (SEQ ID NO: 3), produced by peptide synthesis (MGKGDPKKPRGKMSSYAFFVQTCREEHKKKHPDASVNFSEFSKK; Synthesized peptide from an HMGB1 protein)
left ventricular end-diastolic diameter (DD) ([1]; Day 56 after infarction, N=8, negative control (N=16) 6.3±0.2, P<0.05): 5.8±0.2 mm
left ventricular ejection fraction (EF) ([1]; Day 56 after infarction, N=8, negative control (N=16) 20±4, P<0.05): 26±4%
aggravation of left ventricular systolic function, left ventricular enlargement, and left ventricular remodeling ([1]; myocardial infarction model, five-day administration): significantly suppressed
number of PDGFRα-positive bone marrow-derived mesenchymal cells, non-infarction site ([2]; day 7 post infarction creation, 5 μg/300 μl tail vein x5 (6, 24, 48, 72, 96 h), negative control 32±9): 52±11 cells/mm^2
recruitment of PDGFRα-positive bone marrow mesenchymal stem cells in all areas (infarction, border, non-infarction sites) vs. negative control ([2]; seven days after creating myocardial infarction): significantly recruited
TNFα mRNA level, non-infarction site (TNFα mRNA): 4±2 GAPDH
IL-1β mRNA level, non-infarction site (IL-1β mRNA): 2±1 GAPDH
